These are literature values, as cited in US8969412B2, “Use for a composition comprising chloroprocaine HCL, a new composition comprising chloroprocaine HCL and a method for its manufacture” (Sintetica S.A., priority 2005, dated 2015).

The conditions of data set [1]: intrathecal anaesthesia.
For data set [2] the following is noted: in vivo.
The conditions of data set [3]: intrathecal application.

Take `CCN(CC)CCOC(=O)c1ccc(N)cc1` [procaine]: in data set [1], the inadequacy rate was 17%.

Turning to `CCN(CC)CCOC(=O)c1ccc(N)cc1Cl` [Chloroprocaine, 2-(diethylaminoethyl)-4-amino-chlorobenzoate], the systemic toxicity entry in data set [2] is given as “very low systemic toxicity”.

On to `CCN(CC)CC(=O)Nc1c(C)cccc1C` [lidocaine], for which, in data set [3], the “transient neurologic syndrome (TNS)” value is listed as “associated with symptoms of so-called transient neurologic syndrome (TNS)”.
